Results on two molecules are retold here after patent publication US12011423B2, “S-alkylisothiouronium derivatives for treating uterine hypercontractility disorders” (FORAVISET LTD., priority 2007, dated 2024).

Series [1] deals with women with uterine myoma. To be noted: unpublished studies; cited from earlier work.
Another series has as its system Wistar male rats. In words: Tail-flick test, pain under thermal stimulation (Example 2). Type of series: in vivo. How it is done:
The study was carried out on Wistar male rats (body weight of 210 g). The experiment was carried out on 30 rats divided into 3 groups of 10 animals each. The presence of pain was determined using the Tail-flick test, This method is based on monitoring the reaction time for the typical tail-withdrawal reflex as a result of thermal stimulation. First, the temperature (° C.) at which rat tails was withdrawn was determined, thus identifying the thermal level that caused pain. One hour later, the rats were injected intraperitoneally with S-ethylisothiouronium diethylphosphate in 0.9% NaCl. One group (10 rats) was injected with 5 mg/kg body weigh of S-ethylisothiouronium diethylphosphate, whilst the second and third groups (10 rats each) were injected with 10 and 20 mg/kg body weight, respectively.

The test system of series [2] is women patients having primary dysmenorrhea. In words: Effect on pelvic pains in women having primary dysmenorrhea (Example 4, group II). The series is classed as in vivo. To be noted: intravaginal administration. The method, then: Sixty-ninewomen having symptomatic uterine myoma or primary dysmenorrhea were enrolled to this study. The women were treated with vaginal suppositories of S-ethylisothiouronium diethylphosphate (100 mg of S-ethylisothiouronium diethylphosphate in 2 gr of Suppocire® per day, applied in the posterior vaginal fornix).
In addition, the effect of S-ethylisothiouronium diethylphosphate on pelvic pains was evaluated in 38 women patients having primary dysmenorrhea (group II). The average age of the patients was 24.8±4.1 years. All the 38 patients had experienced at least 6 painful menstrual cycles prior to their inclusion in the study. The duration of the menstrual cycle in all cases was normal, i.e., of 21-35 days, with the menstruation lasting 3-7 days. Further, none of the patients was treated with oral contraceptives for at least 6 months before enrollment. The patients were eligible for the study following the confirmation of normal hematological and biochemical indexes and exclusion of antecedent gynecological surgical procedures.
To evaluate the intensity of pain, the patients reported the pain intensity at the beginning of the study, during, and at the termination of the medical management using one of the following terms: absence of pain; greatly diminished pain; slightly diminished pain; similar pain as of the previous treatment; and intensification of pain. […]

The subject of series [3] is women showing abnormal uterine bleeding. Briefly: Effect of vaginal suppositories on abnormal uterine bleeding in women (Example 1). Type of series: in vivo. The method, then: Thirty-six women showing abnormal uterine bleeding were enrolled to this study. Each woman received one suppository of S-ethylisothiouronium diethylphosphate (100 mg of S-ethylisothiouronium diethylphosphate in 2 gr of Suppocire®, a suppository base obtained by esterification of hydrogenated palm oil and hydrogenated palm kelnel oil) per day, applied in the posterior vaginal fornix.

Series [4] has as its system women with uterine myoma. In words: S-ethylisothiouronium bromide in abnormal uterine hemorrhages and pelvic pains associated with uterine myoma (unpublished studies) and comparison. Type of series: in vivo. To be noted: found to be preferable over S-ethylisothiouronium bromide.
Series [5] relates to women suffering from primary or secondary dysmenorrhea. In words: Effect of vaginal suppositories on pain in primary or secondary dysmenorrhea (Example 3). Type of series: in vivo. How it is done: Vaginal suppositories containing S-ethylisothiouronium diethylphosphate (100 mg each/day) were applied to 28 women suffering from primary or secondary dysmenorrhea.
The mark [6] stands for this setting: 24 hours after beginning of treatment, 100 mg/day vaginal suppository, 28 women.

On to `Br.CCSC(=N)N` [S-ethylisothiouronium bromide], for which, in the series on women with uterine myoma [1], the “duration of effect and side effects” value is “short-duration effect accompanied with side effects such as digestive disturbances and complications”; the “effect on abnormal uterine hemorrhages and pelvic pains” value was “effective in reducing the abnormal uterine hemorrhages and pelvic pains”.
For S-ethylisothiouronium diethylphosphate, the “increase of thermal level for tail withdrawal” value in the series with Wistar male rats (5 mg/kg intraperitoneal) was “about 21%”. In the series with Wistar male rats (5 mg/kg intraperitoneal, before injection 73+1.26° C.), the “thermal level for tail withdrawal after injection” value was 89.01+5.11 °C. The “increase of pain reception level under thermal stimulation” value in the series on Wistar male rats (10 mg/kg body weight intraperitoneal) is “about 31%”. The “pain reception level under thermal stimulation after injection” value in the series with Wistar male rats (10 mg/kg body weight intraperitoneal, before injection 73+3.63° C.) is 96.4+3.98 °C. For the same molecule, in the series on Wistar male rats (20 mg/kg body weight intraperitoneal), the “increase of pain reception level” value was determined as 59%. In addition, the “pain reception level after injection” value in the series with Wistar male rats (20 mg/kg body weight intraperitoneal, before injection 73.5±2.07) was determined as 16.8±9.51 °C. In addition, the “analgesic activity (conclusion in words)” value in the series on Wistar male rats (tail-flick test, 5-20 mg/kg intraperitoneal) is on record as “potent analgesic agent”. In addition, the “treated women in whom uterine cramps were abrogated” value in series [2] was “about 95%”. Also, the “complete disappearance of pathological uterine bleeding” value in series [3] (after six suppositories (100 mg each), intravaginally, one per day, 36 women) is reported as 87.8 % of cases. Further, the “patients reporting menstrual cycles with a normal duration and interval” value in series [3] (over the course of three consecutive months) is listed as 94.4%. Moreover, the “intensity of bleeding moderately reduced, full haemostatic effect not reached” value in series [3] (patients, vaginal suppositories 100 mg per day) came to 12.2%. Moreover, the “Haemostasis obtained, on average, time from the start of treatment” value in series [3] (vaginal suppositories 100 mg per day) was in the range of 40 to 58 h. Besides, in the series with women with uterine myoma [4], the “comparison with S-ethylisothiouronium bromide” value was “longer bioactivity, higher efficacy, and little or no side-effects”. In series [5] (setting [6]), the “complete disappearance of the pain” value turned out to be 39.3% and the “significant decrease in the intensity of the pain” value was 60.7 % of the cases. For the same molecule, the “eradication of pain” value in series [5] (48 hours after beginning of treatment, after a second suppository) is listed as “fully eradicated in all treated women”.
